Data reported in patent US11161815B2, “Hydrocarbylsulfonyl-substituted pyridines and their use in the treatment of cancer” (Oblique Therapeutics AB, priority 2017, dated 2021).

Legend:
[1] = biological target: gluthathione reductase (GR) (Homo sapiens (Human), UniProt P00390); assay: Inhibition of recombinant GR (GSSG assay); type: biochemical; conditions: 2 nM GR, 250 μM NADPH, 15 minutes incubation
Method: (§1) Small molecule inhibition of recombinant thioredoxin reductase 1 (TrxR1) and gluthathione reductase (GR) was examined in 96-well plate format. 30 nM TrxR1 was incubated in the presence of 250 μM NADPH, 0.1 mg/ml BSA, and various concentrations of compound (1% DMSO final) in 50 mM Tris (pH 7.5) and 2 mM EDTA buffer for 15 minutes. Following the incubation period, 2 mM DTNB was added to each well and the change in O.D. at 412 nm was followed. Percent activity was determined using DMSO vehicle and no TrxR1 (blank) controls. 2 nM GR was incubated in the presence of 250 μM NADPH, 0.1 mg/ml BSA, and various concentrations of compounds (1% DMSO final) in 50 mM Tris (pH 7.5) and 2 mM EDTA buffer for 15 minutes. Following the incubation period, 1 mM GSSG was added to each well and the change in O.D. at 340 nm was followed. Percent activity was determined using DMSO vehicle and no GR (blank) controls.

[2] = test system: MDA-MB-231; assay: Cancer cell viability assay (MTT), MDA-MB-231; type: cell-based; conditions: Homo sapiens, 72 hrs, 10% FBS media
Method: (§2) Breast cancer and glioblastoma cell lines were plated 4000 cells/well in 96-well plates in the presence of 10% FBS media. The following day cells were treated with various concentrations of the example compounds (0.1% DMSO final) and incubated for 72 hrs. After the incubation An MTT assay was performed to access cell viability. Percent of viability was determined using DMSO vehicle and no cell (blank) controls.

[3] = test system: U-87 MG; assay: Cancer cell viability assay (MTT), U-87 MG; type: cell-based; conditions: Homo sapiens, 72 hrs, 10% FBS media
Method: as §2

[4] = test system: MDA-MB-231 cells; assay: Breast cancer cell viability assay (Alamar Blue); type: cell-based; conditions: Homo sapiens, 72 hrs, 10% FBS media containing 25 nM selenite
Method: (§3) MDA-MB-231 cells were plated 2000 cells/well in 96-well black optical plates in the presence of 10% FBS media containing 25 nM selenite. The following day cells were treated with various concentrations of compounds (0.1% DMSO final) and incubated for 72 hrs. After the incubation Alamar Blue reagent was added to each well and incubated for additional 3 hrs. Fluorescence was read ex:530 nm/em:590 nm, and percent of viability was determined using DMSO vehicle and no cell (blank) controls.

[5] = biological target: recombinant thioredoxin reductase 1 (TrxR1) (Homo sapiens (Human), UniProt Q16881); assay: Inhibition of recombinant TrxR1 (DTNB assay); type: biochemical; conditions: 30 nM TrxR1, 250 μM NADPH, 15 minutes incubation, read-out: TrxR Assay IC50
Chain of recombinant thioredoxin reductase 1 (TrxR1) (Q16881 151-649): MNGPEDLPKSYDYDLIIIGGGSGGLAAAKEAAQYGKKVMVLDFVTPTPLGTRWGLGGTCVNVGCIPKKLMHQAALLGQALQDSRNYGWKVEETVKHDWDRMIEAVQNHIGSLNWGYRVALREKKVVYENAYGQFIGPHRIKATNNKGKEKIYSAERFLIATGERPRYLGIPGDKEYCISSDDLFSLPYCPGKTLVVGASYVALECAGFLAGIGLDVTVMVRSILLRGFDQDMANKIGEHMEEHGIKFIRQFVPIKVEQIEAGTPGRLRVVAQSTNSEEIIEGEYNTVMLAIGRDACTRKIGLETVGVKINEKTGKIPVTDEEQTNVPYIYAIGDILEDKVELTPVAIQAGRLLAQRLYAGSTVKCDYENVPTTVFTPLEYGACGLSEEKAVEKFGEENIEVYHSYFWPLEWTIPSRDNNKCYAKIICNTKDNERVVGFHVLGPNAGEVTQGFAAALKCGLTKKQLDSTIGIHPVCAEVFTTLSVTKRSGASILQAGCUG
Method: as §1

[6] = test system: MDA-MB-468; assay: Cancer cell viability assay (MTT), MDA-MB-468; type: cell-based; conditions: Homo sapiens, 72 hrs, 10% FBS media
Method: as §2

[7] = test system: FaDu cells; assay: Head and neck cancer cell viability assay (Cell-Quanti Blue); type: cell-based; conditions: Homo sapiens, 72 hrs, 10% FBS media containing 25 nM selenite
Method: as §3, with “FaDu” for “MDA-MB-231”, “the compound of Example 1” for “compounds”, “Cell-Quanti” for “Alamar”

Chain of gluthathione reductase (GR) (P00390 44-522): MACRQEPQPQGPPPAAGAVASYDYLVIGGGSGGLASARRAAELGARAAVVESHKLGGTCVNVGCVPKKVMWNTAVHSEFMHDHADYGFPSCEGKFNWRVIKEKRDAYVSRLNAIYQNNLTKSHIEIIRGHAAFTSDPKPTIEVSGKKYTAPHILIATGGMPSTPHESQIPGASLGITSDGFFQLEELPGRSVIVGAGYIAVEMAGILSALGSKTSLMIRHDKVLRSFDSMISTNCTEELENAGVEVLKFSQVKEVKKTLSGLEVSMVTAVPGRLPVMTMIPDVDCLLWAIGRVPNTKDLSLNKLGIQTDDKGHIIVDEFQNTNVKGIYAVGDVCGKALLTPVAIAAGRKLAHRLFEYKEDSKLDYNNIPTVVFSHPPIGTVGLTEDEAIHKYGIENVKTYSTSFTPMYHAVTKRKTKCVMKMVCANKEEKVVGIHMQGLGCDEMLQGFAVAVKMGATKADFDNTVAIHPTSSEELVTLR

IC50 [1]: > 100 µM | IC50 [2]: 1.8 µM | IC50 [3]: 6.11 µM | IC50 [4]: 3.81 µM | IC50 [5]: 0.0182 µM | IC50 [6]: 2.89 µM | IC50 [7]: 0.28 µM
SMILES: COc1ccc([N+](=O)[O-])c(S(=O)(=O)Cc2ccccc2)n1 [Example 1, 2-Benzylsulfonyl-6-methoxy-3-nitropyridine]
